Measurements as given in article PMC9920413, “New Bicyclic Pyridine-Based Hybrids Linked to the 1,2,3-Triazole Unit: Synthesis via Click Reaction and Evaluation of Neurotropic Activity and Molecular Docking” (Molecules, 2023).

Experiments:
rats [1] = experiment: Electroshock retrograde amnesia, conditioned response of passive avoidance (CRPA); format: in vivo
How it was run: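 Rats trained in light/dark passive avoidance with a single 0.4 mA foot shock in the dark compartment, then given maximal electroconvulsive shock (50 Hz, 0.2 s, corneal) immediately after to induce amnesia. Retention tested 24 h later; antiamnesic effect read as increased time in the light compartment versus controls.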

[2] = system: thiosemicarbazide (TSC)-induced convulsions; experiment: Thiosemicarbazide (TSC) seizures; format: in vivo, mice
How it was run: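 Mice received compounds 100 mg/kg i.p. in carboxymethylcellulose/Tween-80 suspension 45 min before thiosemicarbazide 18 mg/kg s.c. (0.5% solution). Anti-TSC activity judged by latency to onset of clonic seizures.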

mice [3] = experiment: Forced swimming test; settings: 6 min;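 further: mice made to swim in a water-filled glass vessel under natural light, with durations of active swimming and immobility recorded across the 6 min session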
Experimental: Forced swimming test. To assess “despair and depression”, the “compelling swimming” model was used. Experimental animals were forced to swim in a glass container (height 22 cm, diameter 14 cm), filled 1/3 with water. […] The latent period of immobilization, the total duration of active swimming and immobilization are fixed at 6 min (the experiments were conducted under natural light).

rats [4] = experiment: Open field test; format: in vivo
How it was run: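 Rats observed for 5 min in a modified open field whose floor is divided into squares with holes, in daytime under natural light. Horizontal movements, rearing and hole sniffing were counted; eight animals per compound, control and reference drug.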

[5] = system: maximal electroshock-induced seizures; experiment: Maximal electroshock-induced seizures (MES); format: in vivo; settings: mice, MES 50 mA, 0.2 s
Experimental: The study of the anticonvulsant activity of hybrids 7a–u was assessed by evaluating the antagonism to pentylenetetrazole (PTZ), thiosemicarbazide convulsive seizures, and maximal electroshock-induced seizures (MES). The PTZ-induced test is considered an experimental model for the clonic component of epilepsy seizures and the prognostic anxiolytic activity of the compounds. PTZ is a common convulsive agent used in animal models to investigate the mechanisms of seizures. The model of thiosemicarbazide (TSC) seizures (affecting the exchange of GABA) causes clonic seizures similar to pentylenetetrazole ones. The MES test is used as an animal model for the generalization of tonic seizures in epilepsy. The neurotoxicity and side effects of the compounds (movement coordination disorder, myorelaxation, and ataxia) were also studied on mice with the “rotating rod”[29] test.
The anticonvulsant effect of the newly synthesized compounds was investigated by tests comprising pentylenetetrazole, thiosemicarbazide convulsions, and maximal electroshock (MES). Outbred mice (weight 18–22 g) were used for the study. […] Seizures and clonic convulsions were recorded. […]
The MES test is used as an animal model for the generalized tonic seizures of epilepsy. […] The anticonvulsant properties of compounds were assessed by their prevention of the tonic-extensor phase of convulsions.

[6] = system: pentylenetetrazole (PTZ)-induced convulsions; experiment: Antagonism to pentylenetetrazole (PTZ) convulsions; format: in vivo
How it was run: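 Outbred mice (18–22 g), six per dose, given compound or emulsifier vehicle; clonic seizures and convulsions after PTZ recorded over 1 h observation. ED50 derived by the Litchfield–Wilcoxon method.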

mouse = experiment: Elevated plus maze (EPM) test; format: in vivo; settings: 5 min
How it was run: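 Mice dosed intraperitoneally with compound or reference before testing, controls receiving emulsifier. Anxiolytic effect scored as increased entries into and time in open arms without raised total motor activity; closed-arm time and center-entry attempts also recorded; significance at p < 0.05.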

mice [7] = experiment: Rotating rod test (neurotoxicity, myorelaxation); format: in vivo; settings: i.p., myorelaxation in 50% of animals
How it was run: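 Compounds given i.p. at 50 to 500 mg/kg; mice placed on a rubber-coated rod rotating at 5 rpm, counting animals unable to stay on for 2 min. TD50 derived by the Litchfield–Wilcoxon method.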

in vivo = settings: outbred, mouse, in vivo; mice, dead animals after 24 h
How it was run: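 Compounds are given intraperitoneally to mice at 50 to 500 mg/kg, with reference drugs at anticonvulsant doses. Muscle relaxation is scored on a rod rotating at 5 rpm as the number of animals unable to stay on for 2 min. ED50, TD50 and LD50 come from the Litchfield and Wilcoxon method.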

[8] = Mus musculus, read-out: Latency of Convulsions, Induced by TSC, I (index of latent period of TSC seizures)

CN1C(=O)CN=C(c2ccccc2)c2cc(Cl)ccc21 [Diazepam, diazepam, reference compound]
The Time Spent in the Light Chamber When Playing CRPA + MESH after 24 h, Second Day (rats [1]; 2 mg/kg, study for 5 min): 126.0 ± 6.5 s
The Time Spent in the Light Chamber during the Training of the CRPA, First Day (rats [1]; 2 mg/kg, study for 5 min): 187.0 ± 6.7 s
antiamnestic effect, in words (rats [1]; electroshock retrograde amnesia, CRPA): did not have an antiamnestic effect
response vs control in vivo at 2 mg/kg [2, 8]: 90%
Latency of Convulsions, Induced by TSC, M ± M ([2]; mice, diazepam 2 mg/kg): 9.0 ± 2.5 min
effect on the model of thiosemicarbazide (TSC) seizures, in words ([2]; mice, diazepam 2 mg/kg): not effective
Total Time of Active Swimming (mice [3]; 2 mg/kg): 336.0 ± 8.1 s
Total Time of Immobilization (mice [3]; 2 mg/kg): 24.0 ± 8.2 s
Cells Examination, amount (absolute data during 5 min) (rats [4]; 2 mg/kg): 5.0 ±1.2
Horizontal Displacement, amount (absolute data during 5 min) (rats [4]; 2 mg/kg): 33.6 ± 6.1
Vertical Displacement, amount (absolute data during 5 min) (rats [4]; 2 mg/kg): 6.4 ± 1.4
anticonvulsant effect in the MES test (protection from tonic and clonic seizures) [5]: did not exhibit an anticonvulsant effect
ED50 ([6]; Mus musculus, read-out: ED50 (by PTZ antagonism)): 0.5 mg/kg
TI ([6]; therapeutic index TI = LD50/ED50): 360
Number of Entries into the Closed Arms (mouse; 2 mg/kg): 5.5 ± 1.1
Time Spent in Closed Arms (mouse; 2 mg/kg): 257.5 ± 25.2 s
Time Spent in the Center (mouse; 2 mg/kg): 42.5 ± 3.9 s
Time Spent in the Open Arms (mouse; 2 mg/kg): 57.0 ± 4.2 s

CCC1(C)CC(=O)NC1=O (centres unmarked) [Ethosuximide, ethosuximide, reference compound]
response vs control in vivo at 200 mg/kg [2, 8]: 170%
Latency of Convulsions, Induced by TSC, M ± M ([2]; mice, ethosuximide 200 mg/kg): 17.0 ± 1.4 min
Total Time of Active Swimming (mice [3]; 200 mg/kg): 262 ± 25.0 s
Total Time of Immobilization (mice [3]; 200 mg/kg): 98.0 ± 9.2 s
TD50 (mice [7]): 520 (413 ÷ 655) mg/kg
LD50 at 24 h (in vivo): 1320 mg/kg
Cells Examination, amount (absolute data during 5 min) (rats [4]; 200 mg/kg): 0.6 ± 0.5
Horizontal Displacement, amount (absolute data during 5 min) (rats [4]; 200 mg/kg): 26.8 ± 5.51
Vertical Displacement, amount (absolute data during 5 min) (rats [4]; 200 mg/kg): 5.6 ± 1.8
anticonvulsant effect in the MES test (protection from tonic and clonic seizures) [5]: did not exhibit an anticonvulsant effect
TI ([6]; outbred, mouse, in vivo): 8.5
Number of Entries into the Closed Arms (mouse; 200 mg/kg): 8.1 ± 2.5
Time Spent in Closed Arms (mouse; 200 mg/kg): 247.2 ± 27.6 s
Time Spent in the Center (mouse; 200 mg/kg): 52.8 ± 4.7 s
